From the supplement of paper PMC4862054

Legend:
Experiment in all cases: normalised viability (% of control), CellTiter-Blue; higher = more viable cells (about 100 = DMSO control)
HCC1143 [1] = conditions: incubation time: 72 h
How it was run: (§1)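 384-well plates were pre-loaded with compound in 5 µl medium before 20 µl of breast cancer cell suspension was seeded. Following 72 h incubation, 2.5 µl CellTiter-Blue reagent was added for 2 h at 37 °C. Fluorescence was read at 560/590 nm and plates were normalised to vehicle (100) and a positive kill control (0), checked by Z'-factor. Normalised viability is reported at a single listed concentration of the series.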

MDA-MB-453 [2] = conditions: incubation time: 72 h
How it was run: as §1

SK-BR-3 [3] = conditions: incubation time: 72 h
How it was run: as §1

BT-474 [4] = conditions: incubation time: 72 h
How it was run: as §1

DU-4475 [5] = conditions: incubation time: 72 h
How it was run: as §1

MDA-MB-468 [6] = conditions: incubation time: 72 h
How it was run: as §1

CAL-148 [7] = conditions: incubation time: 72 h
How it was run: as §1

CAL-51 [8] = conditions: incubation time: 72 h
How it was run: as §1

MFM-223 [9] = conditions: incubation time: 72 h
How it was run: as §1

MDA-MB-231 [10] = conditions: incubation time: 72 h
How it was run: as §1

HCC1599 [11] = conditions: incubation time: 72 h
How it was run: as §1

HCC1937 [12] = conditions: incubation time: 72 h
How it was run: as §1

HCC1143 [13] = conditions: 100 nM; incubation time: 72 h
Description: (§2)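 DSRT, CellTiter-Blue viability, 72 h incubation. Signal is normalised to DMSO and benzethonium chloride controls. Value is the normalised response at dose 3.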

MDA-MB-436 = conditions: 100 nM; incubation time: 72 h
Description: as §2

Hs578T = conditions: 100 nM; incubation time: 72 h
Description: as §2

MDA-MB-453 [14] = conditions: 10 nM; incubation time: 72 h
Description: as §2

SK-BR-3 [15] = conditions: 100 nM; incubation time: 72 h
Description: as §2

HDQ-P1 = conditions: 10 nM; incubation time: 72 h
Description: as §2

BT-474 [16] = conditions: 100 nM; incubation time: 72 h
Description: as §2

DU-4475 [17] = conditions: 10 nM; incubation time: 72 h
Description: as §2

CAL-85-1 = conditions: 10 nM; incubation time: 72 h
Description: as §2

MDA-MB-468 [18] = conditions: 100 nM; incubation time: 72 h
Description: as §2

CAL-148 [19] = conditions: 10 nM; incubation time: 72 h
Description: as §2

BT-549 = conditions: 100 nM; incubation time: 72 h
Description: as §2

CAL-51 [20] = conditions: 10 nM; incubation time: 72 h
Description: as §2

CAL-120 = conditions: 100 nM; incubation time: 72 h
Description: as §2

MFM-223 [21] = conditions: 100 nM; incubation time: 72 h
Description: as §2

MDA-MB-231 [22] = conditions: 100 nM; incubation time: 72 h
Description: as §2

HCC1599 [23] = conditions: 100 nM; incubation time: 72 h
Description: as §2

HCC1937 [24] = conditions: 100 nM; incubation time: 72 h
Description: as §2

Cn1cc(C2=C(c3cn(C4CCN(Cc5ccccn5)CC4)c4ccccc34)C(=O)NC2=O)c2ccccc21 [Enzastaurin]
normalised viability [%]
Conditions | 3 nM | 10 nM | 30 nM | 100 nM | 1000 nM | 10000 nM
BT-474 [4] | – | 104 | – | – | 92.7 | 67
CAL-51 [8] | 117 | – | 111 | 107 | – | –
CAL-148 [7] | 78.6 | – | 80.2 | 78.5 | – | –
DU-4475 [5] | 91.1 | – | 103 | 94.2 | – | –
HCC1143 [1] | – | 76.8 | – | – | 64.8 | 61.5
HCC1599 [11] | – | 101 | – | – | 93.2 | 82.4
HCC1937 [12] | – | 91.1 | – | – | 75.6 | 48.9
MDA-MB-231 [10] | – | 88.2 | – | – | 89.6 | 71.1
MDA-MB-453 [2] | 107 | – | 93.7 | 87.8 | – | –
MDA-MB-468 [6] | – | 103 | – | – | 107 | 62.8
MFM-223 [9] | – | 90 | – | – | 65.1 | 55.9
SK-BR-3 [3] | – | 99.8 | – | – | 63.4 | 37

Conditions | normalised viability [%]
BT-474 [16] | 108
BT-549 | 104
CAL-51 [20] | 108
CAL-85-1 | 96.9
CAL-120 | 91.6
CAL-148 [19] | 95.3
DU-4475 [17] | 123
HCC1143 [13] | 98
HCC1599 [23] | 114
HCC1937 [24] | 86.2
HDQ-P1 | 123
Hs578T | 68.7
MDA-MB-231 [22] | 93.5
MDA-MB-436 | 84.9
MDA-MB-453 [14] | 97.5
MDA-MB-468 [18] | 105
MFM-223 [21] | 92.7
SK-BR-3 [15] | 69.8
